Patent publication US20040019060A1, “Sigma receptor ligands and their medical uses” (priority 2000, published 2004)
Where a name gives a salt, the structure may show the parent alone. Read-outs that look alike come from different tables or passages of the source.

Columns and labels:
[1] = test system: endothelial cells; assay: Endothelial cell proliferation assay (cell phosphatase activity); type: cell-based, human; details: Homo sapiens, Endothelial cell
Experimental: (§1) HUVECS (human umbilical vein endothelial cells) obtained from TCS Biologicals were grown in TCS Biologicals Large Vessel Endothelial Cell Basal Medium (ZHM-2951) with supplement (ZHS-8945). This contains heparin, hydrocortisone, human EGF, human bFGF (concentrations not disclosed by the Company) with added 2% FCS, pH 7.4.
(§2) HMEC-1 (immortalised human microvascular endothelial cells) obtained from Dr Colin Porter, Chester Beatty Laboratories were grown in TCS Biologicals Microvascular Endothelial Cell Basal Medium (ZHM-2946) with supplement (ZHS-8947). This contains heparin, hydrocortisone, human EGF, human bFGF, dibutyryl cyclic AMP (concentrations not disclosed by the Company) with added 5% FCS, pH 7.4.
HDMECS (human dermal microvascular endothelial cells) obtained from TCS Biologicals were grown in TCS Biologicals Microvascular Endothelial Cell Basal Medium (ZHM-2946) with supplement (ZHS-8947). This contains heparin, hydrocortisone, human EGF, human bFGF, dibutyryl cyclic AMP (concentrations not disclosed by the Company) with added 5% FCS, pH 7.4.
(§3) The cells were seeded at 2×10^4 ml in 96 well microtitre plates on day 0, and sigma ligands were added in fresh medium on day 1. […] PCS at the concentrations indicated was present throughout the assay. Each concentration of drug was assayed in triplicate, and the vehicle concentration was kept constant.
Viable cells present at the end of the assay were estimated by determining phosphatase activity as follows: 100Xl of paranitrophenylphosphate (Sigma) at 3 mg/ml in phosphate buffer pH 5.5 containing 0.1% Triton X100 was added to wells and incubated for 2hr at 37° C. The reaction was stopped with 1N NaOH. Released paranitrophenol, indicative of attached cell number, was measured by reading the absorbance at 405 nm in a Titertek multiscan. […] The 100% value is the mean absorbance of control wells treated with vehicle alone; the 0% value is that of wells containing medium only.

[2] = test system: human microvascular endothelial cells (HMEC-1); assay: Proliferation assay in HMEC-1 (phosphatase activity); type: cell-based; details: 168 h, read-out: IC50 (dose required to inhibit proliferation to 50% of control), HMEC-1, FIG. 2a, assay on day 7
Experimental: as §2, §3
(§4) Viable cells present at the end of the assay were estimated by determining phosphatase activity as follows: 100Xl of paranitrophenylphosphate (Sigma) at 3 mg/ml in phosphate buffer pH 5.5 containing 0.1% Triton X100 was added to wells and incubated for 2hr at 37° C. The reaction was stopped with 1N NaOH. Released paranitrophenol, indicative of attached cell number, was measured by reading the absorbance at 405 nm in a Titertek multiscan. “Background” counts (which were very low) were subtracted, and the survival in drug treated wells compared with that of control wells. The 100% value is the mean absorbance of control wells treated with vehicle alone; the 0% value is that of wells containing medium only.

[3] = test system: human vascular endothelial cells (HUVEC); assay: Proliferation assay in HUVEC (phosphatase activity); type: cell-based; details: 168 h, read-out: IC50 (dose required to inhibit proliferation to 50% of control), FIG. 2b, assay on day 7
Experimental: as §1, §3, §4

[4] = Pharmacokinetics in mice (LCMS of plasma, liver, spleen); type: in vivo, Balb/C mice
Experimental: Prior to undertaking any in vivo experiments with Rimcazole to study effects on tumour growth and angiogenesis, it was necessary to determine its pharmacokinetics in order that doses in the active range could be administered. Rimcazole (dissolved in water) was administered at 40 mg/kg i.p to Balb/C mice. Heparinised blood samples were taken at 5, 15 and 30 minutes, 1,2,4,6, and 24 hours and plasma separated. Tissue samples were also taken at some time points for analysis. Rimcazole samples were initially analysed by LCMS.
Column: Supelco 50×4.6 mm ABZ+ with 5 μ packing.
Mobile phase: A=HPLC grade methanol, B=0.1% formic acid in water.
Full scan mode: mass range analysed 50 to 850 amu.
MSMS mode: filtered ions were 322 (Rimcazole), 338 (Rimcazole+oxygen), and 514 (glucuronide of 338 metabolite).

[5] = test system: MDA MB 435 human breast carcinoma xenografts; assay: MDA MB 435 breast carcinoma xenograft growth and angiogenesis; type: in vivo, NCr athymic mice; details: for Tumour growth (increase in volume relative to start of treatment): FIG. 8a
Experimental: MDA MB 435 human breast carcinoma cells (as a model of hormone-insensitive disease) were grown in tissue culture to 70% confluence, harvested with trypsin:EDTA, washed, resuspended in DMEM and injected bilaterally into the inguinal fat pads of 6 week old female NCr athymic mice (orthotopic site) at 1.5×10^6 cells in 50 μl. The mice were housed in filter boxes in […] laminar flow cabinets and fed sterilized food and water. All procedures were carried out in class 1 laminar flow hoods using sterile equipment and reagents. On day 7, the tumours were measured with vernier calipers across two perpendicular diameters, and the mice were randomised into experimental groups and treated as follows: 1. […] 2. […] 3. Rimcazole 15 mg/kg/day (as above). […] The preparations were made up freshly each day, and the animals dosed intraperitoneally for 24 days. Animals were observed daily and weighed regularly to check that there were no adverse effects of treatment. […] Differences in growth were compared using the Mann-Whitney U test. At termination of the experiment the mice were killed and tumours excised and weighed. Blood, liver and tumour samples were snap frozen for analysis of drug levels by LCMS/MS. Tumour samples were also cryopreserved, and sections cut and stained with MECA-32 (Developmental Studies Hybridoma Unit; rat anti mouse endothelium) visualised with HRP conjugated goat-anti rat (Star 72, Serotec) to estimate blood vessel density.

[6] = test system: human adult dermal fibroblasts; assay: MTS cell viability/proliferation assay, dermal fibroblasts; type: cell-based
Text: (§5) (Tissue in all cases was from healthy donors). […] Primary cell types included:
(§6) Cell density was checked microscopically at time zero.

[7] = test system: Human mammary epithelial cells; assay: MTS cell viability/proliferation assay, mammary epithelial cells; type: cell-based; details: 10 micromolar, up to 48 hours, FIG. 9
Text: as §5
Human mammary epithelial cells (catalogue number CC-2551; stain positive for cytokeratins 14, 18 and 19).
as §6

[8] = target: sigma-1 sites (Homo sapiens, UniProt Q99720); details: Abou-Gharbia et al 1993; cited from earlier work
[9] = test system: Human adult dermal microvascular endothelial cells; assay: MTS cell viability/proliferation assay, microvascular endothelial cells; details: Homo sapiens, Endothelial cell

sigma-1 sites, sequence (Q99720 whole entry): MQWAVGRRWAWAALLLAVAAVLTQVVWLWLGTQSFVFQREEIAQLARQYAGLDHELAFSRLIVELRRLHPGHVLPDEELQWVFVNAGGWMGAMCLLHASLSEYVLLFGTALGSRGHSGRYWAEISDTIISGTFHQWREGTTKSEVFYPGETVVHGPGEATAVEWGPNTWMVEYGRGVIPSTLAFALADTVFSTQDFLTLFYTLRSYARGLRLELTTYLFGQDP

## C[C@@H]1CN(CCCn2c3ccccc3c3ccccc32)C[C@H](C)N1 [Rimcazole, cis-9-[3,5-dimethyl-1-piperazinyl) propyl]carbazole dihydrochloride]
[1]; 4 μM Rimcazole, read-out: Endothelial cell proliferation, % of control cells
  activity at 4 µM: < 50%
[1]; concentration of drug required to inhibit survival and/or proliferation by 50%, read-out: Antagonists: IC50
  IC50: 5 µM
[2]
  IC50: < 5 µM
[3]
  IC50: < 5 µM
[4]; Rimcazole 40 mg/kg i.p., mice, spleen and liver
  Tissue levels relative to plasma: higher in spleen and liver than in plasma
[4]; once daily dosing at 40 mg/kg
  Plasma levels relative to IC50: plasma levels above the IC50 for a significant period
[5]; 15 mg/kg dose, FIG. 8b
  Weights of excised tumours: did not achieve statistical significance
[5]; 15 mg/kg/day i.p. for 24 days, p=0.0228 Mann-Whitney U test
  Tumour growth (increase in volume relative to start of treatment): significant tumour growth retardation
[5]; 30 mg/kg/day i.p. for 24 days, p=0.0436 Mann-Whitney U test
  Tumour growth (increase in volume relative to start of treatment): significant tumour growth retardation
[5]; 30 mg/kg/day, p=0.0239, FIG. 8b
  Weights of excised tumours: significantly less
[5]; 15 and 30 mg/kg/day for 24 days, data not shown
  Health and body weight gain of mice during therapy: remained healthy throughout therapy and gained weight at the same rate as controls
[5]; both doses (15 and 30 mg/kg/day), FIG. 8c
  Vascular density in excised tumours: significantly inhibited
[6]; 10 micromolar, up to 48 hours, FIG. 9
  Survival and proliferation (MTS): continued to proliferate vigorously
[6]; 100 micromolar to 1 nanomolar, FIG. 10
  Tolerance of fibroblasts over a range of concentrations (MTS): remarkably resistant
[7]
  Survival and proliferation (MTS): continued to proliferate vigorously
[8]
  selectivity for sigma-1 compared to sigma-2 sites: approximately 5 fold
[9]; read-out: Reduction in viability
  cytotoxicity at 10 µM: ~80%
[9]; read-out: Reduction in viable cell numbers compared to baseline values
  cytotoxicity at 10 µM: 60 to 80%
